Laboratory results published in article PMC3684613 (PLoS ONE, 2013).
pEC50: −log10 of the molar value. Where two headings read alike, the source gives them in different places.

Columns and labels:
P. falciparum 3D7 [1] = assay: DAPI stain fluorescent high content imaging assay, P. falciparum 3D7 (confirmatory screen, Avery); conditions: Plasmodium falciparum; for pEC50: 3D7, read-out: EC50_nM; for inhibition of growth at 5 µM: 3D7, read-out: percent_inh @ 5 uM
P. falciparum 3D7 [2] = test system: P. falciparum 3D7; parameters: method as in ChEMBL-NTD; conditions: ref ChEMBL-NTD, cited from earlier work
[3] = values follow the order of the source (GNF; GSK; StJude)
[4] = original screening data, source (GSK, GNF, StJude), several values separated by ';' in order of sources

Row | SMILES | pEC50 (P. falciparum 3D7 [1]) | inhibition of growth at 5 µM (P. falciparum 3D7 [1]) [%] | other results
1 | COc1cc(-c2nc(-c3ccccc3)c(-c3ccccc3)[nH]2)cc(OC)c1O [MMV020750] | 5.93 | 97 | pEC50 (P. falciparum 3D7 [2]; [3]): 6.11
2 | Oc1ccccc1CNCC12CC3CC(CC(C3)C1)C2 [MMV020788] | 7.65 | 96 | pEC50 (P. falciparum 3D7 [2]; source GSK (TCMDC id)): 6.55
3 | COc1ccc(Br)cc1C1Nc2ccc3ccccc3c2C2=C1C(=O)CC(c1ccccc1)C2 (stereo not shown) [MMV020885] | 6.74 | 95 | pEC50 (P. falciparum 3D7 [2]; source GSK (TCMDC id)): 6.23
4 | Cc1ccc(-c2nc3ccccc3o2)cc1NCc1cc(Cc2ccccc2)ccc1O [MMV020912] | – | 64 | pEC50 (P. falciparum 3D7 [2]; [3]): 5.99
5 | CCC(=O)Nc1nnc(Cc2ccc(OC)c(OC)c2)s1 [MMV020942] | – | 47 | pEC50 (P. falciparum 3D7 [2]; source GSK (TCMDC ids)): 6.04
6 | COc1cc(SC)ccc1C(=O)N1CCCC(C)C1 (stereo not shown) [MMV056726] | 5.40 | – | inhibition of growth at 2 µM (P. falciparum 3D7 [1]; 3D7, read-out: percent_inh @ 2 uM): 45%; pEC50 (P. falciparum 3D7 [2]; [4]): 5.01
7 | CN(C)c1ccc(N=Cc2ccc(N3CCOCC3)cc2)cc1 [MMV073843] | – | 96 | pEC50 (P. falciparum 3D7 [2]; [3]): 6.76
8 | COc1cc2c(cc1OC)C1=NNC(=O)C1=NC(C)(C)C2 [MMV084940] | 5.98 | – | pEC50 (P. falciparum 3D7 [2]; [4]): 5.80
9 | COc1ccccc1N=C1C(=O)c2ccccc2C(O)=C1N1CCCCC1 [MMV085203] | 8.28 | 98 | pEC50 (P. falciparum 3D7 [2]; source GNF (GNF-Pf id)): 7.55
10 | CCOc1ccc(-n2cc(-c3ccccc3)c3c(SCc4cc(C)ccc4C)ncnc32)cc1 [MMV085471] | 5.77 | 97 | pEC50 (P. falciparum 3D7 [2]; source GNF (GNF-Pf ids)): 5.70
11 | CCCCCC(=O)N1c2ccccc2N=C2CC(c3ccc(OC)c(OC)c3)CC(O)=C2C1c1ccc(C(F)(F)F)cc1 (stereo not shown) [MMV085583] | 6.63 | 100 | pEC50 (P. falciparum 3D7 [2]; source GNF (GNF-Pf id)): 6.97
12 | Cc1ccc(C(=O)c2oc3ccc4c(C)cc(=O)oc4c3c2C)cc1 [MMV086103] | 6.04 | 96 | pEC50 (P. falciparum 3D7 [2]; [3]): 5.99
13 | COc1cc(CNCCc2ccc(Cl)cc2)cc(OC)c1O [MMV128432] | 5.75 | 97 | pEC50 (P. falciparum 3D7 [2]; [3]): 5.16
14 | CC(C)(C)c1ccc(C(=O)Nc2nc3ccccc3s2)cc1 [MMV142383] | – | 81 | pEC50 (P. falciparum 3D7 [2]; source StJude): 4.82
15 | CCOC(=O)c1cnc2c(CC)cccc2c1O [MMV498479] | – | 87 | pEC50 (P. falciparum 3D7 [2]; source GNF (GNF-Pf ids)): 5.78
16 | CCN(CC)CCCNc1ccnc2cc3ccccc3cc12 [MMV665783] | – | 90 | pEC50 (P. falciparum 3D7 [2]; source GNF (GNF-Pf ids)): 7.47
17 | CC(C)(C)c1ccc(O)c(CNC2CCCCC2)c1 [MMV665785] | 6.79 | 96 | pEC50 (P. falciparum 3D7 [2]; source GNF (GNF-Pf id)): 6.60; pEC50 (P. falciparum 3D7 [2]; source GSK (TCMDC id)): 6.58
18 | O=c1cc(NC2CCN(CCCc3ccccc3)CC2)c2cc(Cl)ccc2o1 [MMV665786] | 6.07 | 97 | pEC50 (P. falciparum 3D7 [2]; source GNF (GNF-Pf ids)): 6.39
19 | CC(NCc1ccccc1)c1cc(Cl)ccc1O (stereo not shown) [MMV665789] | 6.22 | 95 | pEC50 (P. falciparum 3D7 [2]; source GNF): 6.23
20 | FC(F)(F)c1cccc(Nc2nc3ccccc3nc2Nc2cccc(C(F)(F)F)c2)c1 [MMV665794] | 6.50 | 99 | pEC50 (P. falciparum 3D7 [2]; source GSK (TCMDC ids)): 6.86
21 | CCOc1cc(Br)c(C(C)NC(=O)c2cccc(OC)c2)cc1OCC (stereo not shown) [MMV665796] | 5.84 | 96 | pEC50 (P. falciparum 3D7 [2]; source GSK): 6.77

Row | SMILES | pEC50 (P. falciparum 3D7 [1]) | inhibition of growth at 5 µM (P. falciparum 3D7 [1]) [%] | other results
22 | CCCCOC(=O)c1ccc(Nc2cc(C)nc3ccc(OC)cc23)cc1 [MMV665797] | 6.23 | 99 | pEC50 (P. falciparum 3D7 [2]; source GSK (TCMDC ids)): 6.19
23 | FC(F)(F)c1cccc(Nc2nc(-c3ccccc3)nc3ncccc23)c1 [MMV665798] | – | 74 | pEC50 (P. falciparum 3D7 [2]; source GSK): 6.10
24 | COc1ccc(C(=O)Nc2ccc(Cl)cc2C(=O)Nc2ccncc2)cc1 [MMV665799] | – | 93 | pEC50 (P. falciparum 3D7 [2]; source GSK): 6.08
25 | CCOc1cc(Cl)c(C(C)NC(=O)c2ccccc2)cc1OCC (stereo not shown) [MMV665800] | 5.86 | 96 | pEC50 (P. falciparum 3D7 [2]; source GSK): 6.06
26 | CCOc1cc(Cl)c(C(C)NC(=O)c2cccc(OC)c2)cc1OCC (stereo not shown) [MMV665803] | 6.14 | 98 | pEC50 (P. falciparum 3D7 [2]; source GSK): 6.02
27 | CCOc1ccc(-c2nonc2NC(=O)c2cccc(C)c2)cc1OCC [MMV665805] | 6.93 | 86 | pEC50 (P. falciparum 3D7 [2]; source StJude): 7.21
28 | Cc1c(C)n(CC(O)CNC2CCCCC2C)c2ccccc12 (stereo not shown) [MMV665806] | 6.11 | 96 | pEC50 (P. falciparum 3D7 [2]; [4]): 6.28
29 | O=C(Nc1cccc(C(F)(F)F)c1)c1cc(Cl)ccc1O [MMV665807] | – | 93 | pEC50 (P. falciparum 3D7 [2]; source StJude): 6.01
30 | Oc1ccc(Br)cc1CN1CCN(Cc2ccc(Cl)cc2)CC1 [MMV665809] | – | 97 | pEC50 (P. falciparum 3D7 [2]; [3]): 5.83
31 | CCc1ccc(CNCC(O)c2ccccc2)cc1 (stereo not shown) [MMV665812] | – | 97 | pEC50 (P. falciparum 3D7 [2]; source StJude): 5.66
32 | CCOC(=O)c1cnc2ccc(OC)cc2c1NCc1ccccc1 [MMV665813] | – | 87 | pEC50 (P. falciparum 3D7 [2]; [3]): 5.56
33 | CC(C)(C)CC(C)(C)NCC(O)COc1ccc2c(c1)CCC2 (stereo not shown) [MMV665817] | – | 78 | pEC50 (P. falciparum 3D7 [2]; source StJude): 5.35
34 | COc1ccc2c(=O)cc(C(Cl)(Cl)Cl)oc2c1 [MMV665820] | 6.28 | 94 | pEC50 (P. falciparum 3D7 [2]; source StJude (SJ id)): 4.82
35 | Cn1c(C(=O)c2cccc3ccccc23)nc2ccccc21 [MMV665824] | – | 89 | pEC50 (P. falciparum 3D7 [2]; source GNF): 8.16
36 | COc1cccc(NC(=O)Cn2c(C)c(C#N)c3ccccc32)c1 [MMV665826] | 5.96 | 95 | pEC50 (P. falciparum 3D7 [2]; source GNF): 7.10; pEC50 (P. falciparum 3D7 [2]; source GSK): 6.06
37 | CCOC(=O)c1cn(CC)c2cc(N3CCCCC3)c(F)cc2c1=O [MMV665827] | 6.92 | 100 | pEC50 (P. falciparum 3D7 [2]; source GNF (GNF-Pf id)): 6.78; pEC50 (P. falciparum 3D7 [2]; source GSK (TCMDC id)): 6.90
38 | CC1CC2=C(CC1CNCCCN(C)C)C(C)(C)CCC2 (stereo not shown) [MMV665830] | 6.00 | 98 | pEC50 (P. falciparum 3D7 [2]; [3]): 6.60
39 | CCOC(=O)c1c(NC(=O)c2ccccc2)sc2c(O)c(CN(CC)CC)ccc12 [MMV665831] | 6.69 | 96 | pEC50 (P. falciparum 3D7 [2]; source GNF (GNF-Pf id)): 6.57; pEC50 (P. falciparum 3D7 [2]; source GSK (TCMDC id)): 6.01
40 | O=C(Nc1ccc(-c2nc3ccccc3[nH]2)cc1)c1ccc(Cl)c(Cl)c1 [MMV665840] | 6.08 | 97 | pEC50 (P. falciparum 3D7 [2]; [3]): 6.28
41 | CCCc1cc(O)c2c3c(c(=O)oc2c1)CN(C)CC3 [MMV665841] | 6.84 | 97 | pEC50 (P. falciparum 3D7 [2]; source GNF (GNF-Pf id)): 6.26; pEC50 (P. falciparum 3D7 [2]; source GSK (TCMDC id)): 6.06
42 | Oc1c2c(nc3ccccc13)CCCC2 [MMV665843] | – | 82 | pEC50 (P. falciparum 3D7 [2]; [4]): 6.20

Row | SMILES | pEC50 (P. falciparum 3D7 [1]) | inhibition of growth at 5 µM (P. falciparum 3D7 [1]) [%] | other results
43 | Oc1ccc(Cl)cc1CNc1nc2ccccc2[nH]1 [MMV665850] | – | 95 | pEC50 (P. falciparum 3D7 [2]; source GNF): 6.04
44 | O=C(Nc1ccc(Cl)c(Cl)c1)Nc1ccc(Cl)c(Cl)c1 [MMV665852] | 5.94 | 96 | pEC50 (P. falciparum 3D7 [2]; [3]): 5.99
45 | CCOc1c(Cl)cc(CNC(C)C(O)c2ccccc2)cc1OC (stereo not shown) [MMV665857] | – | 98 | pEC50 (P. falciparum 3D7 [2]; source GNF): 5.78
46 | CCCCNc1nc(NC(C)(C)C)nc(NC(C)(C)C)n1 [MMV665864] | 6.15 | 98 | pEC50 (P. falciparum 3D7 [2]; [3]): 5.67
47 | Cc1cc(Nc2ccc(C)c(Cl)c2)n2nc(C(F)(F)F)nc2n1 [MMV665874] | 8.17 | 98 | pEC50 (P. falciparum 3D7 [2]; source GSK (TCMDC id)): 7.80
48 | Cn1c(=O)n(C)c2cc(CNCCNc3ccnc4cc(Cl)ccc34)ccc21 [MMV665875] | 6.26 | 90 | pEC50 (P. falciparum 3D7 [2]; [3]): 6.85
49 | CCC(c1ccccc1)c1nn2c(-c3cccs3)nnc2s1 (stereo not shown) [MMV665876] | 6.59 | 99 | pEC50 (P. falciparum 3D7 [2]; source GSK (TCMDC id)): 6.78
50 | COc1cccc(NC(=O)[C@H](C(C)C)n2c(=O)[nH]c3ccccc3c2=O)c1 [MMV665878] | 6.86 | 99 | pEC50 (P. falciparum 3D7 [2]; source GSK (TCMDC id)): 6.57
51 | CC(C)(C)C(=O)Nc1ccc(C(=O)Nc2cccc(-c3nc4ccccc4[nH]3)c2)cc1 [MMV665879] | – | 91 | pEC50 (P. falciparum 3D7 [2]; [4]): 6.55
52 | COc1ccc(CNC(=O)c2cc3c(=O)n4ccccc4nc3n(CCc3ccccc3)c2=N)cc1 [MMV665881] | 5.97 | 95 | pEC50 (P. falciparum 3D7 [2]; [3]): 6.48
53 | OC(CNC1CCCCC1)Cn1c2ccc(I)cc2c2cc(I)ccc21 (stereo not shown) [MMV665882] | 6.33 | 97 | pEC50 (P. falciparum 3D7 [2]; [3]): 6.47
54 | O=C(Nc1cccc(-c2nc3ccccc3[nH]2)c1)c1cccc(NC(=O)c2ccco2)c1 [MMV665883] | 6.13 | 95 | pEC50 (P. falciparum 3D7 [2]; [4]): 6.44
55 | CC(Oc1ccc(NC(=O)c2cccs2)cc1)C(=O)c1ccc(Cl)cc1 (stereo not shown) [MMV665886] | 5.99 | 87 | pEC50 (P. falciparum 3D7 [2]; [3]): 6.11
56 | O=C(Nc1ccccc1O)c1ccc(Oc2cccc(C(=O)Nc3ccccc3O)c2)cc1 [MMV665888] | – | 91 | pEC50 (P. falciparum 3D7 [2]; source GSK): 6.10
57 | COc1ccc(-c2nonc2NC(=O)c2cccc(C)c2)cc1OC [MMV665890] | – | 95 | pEC50 (P. falciparum 3D7 [2]; [4]): 6.09
58 | c1ccc(-c2ccc(-c3nc4ccccc4[nH]3)cc2)cc1 [MMV665891] | 5.97 | 52 | pEC50 (P. falciparum 3D7 [2]; source GSK): 6.09
59 | CC(=O)c1sc(NC(=O)Nc2ccc(C)cc2C)nc1C [MMV665894] | 6.27 | 64 | pEC50 (P. falciparum 3D7 [2]; [3]): 6.04
60 | COc1ccc2nc(N)nc(C)c2c1 [MMV665897] | – | 63 | pEC50 (P. falciparum 3D7 [2]; source GSK (TCMDC ids)): 6.03
61 | COc1cc(C(=O)Nc2ccc(-c3nc4ccccc4[nH]3)cc2)cc(OC)c1OC [MMV665898] | 5.91 | 95 | pEC50 (P. falciparum 3D7 [2]; [3]): 6.01
